Experimental data published in article PMC11110727, “Exploiting thiol-functionalized benzosiloxaboroles for achieving diverse substitution patterns – synthesis, characterization and biological evaluation of promising antibacterial agents” (RSC Medicinal Chemistry, 2024).
In brackets after ≈: the same amount, converted by molar mass.

Experiments:
[1] = tested on: E. faecalis ATCC 29212; test: Antibacterial activity: MIC/MBC determination and disc-diffusion; assay type: cell-based; conditions: Enterococcus faecalis, ATCC29212, E. faecalis ATCC 29212; for MIC: read-out: MIC
Description: (§1) Direct antimicrobial activity was determined against the following standard strains: (1) Gram-positive cocci: methicillin-sensitive Staphylococcus aureus ATCC 6538P (MSSA), methicillin-resistant S. aureus subsp. aureus ATCC 43300 (MRSA), S. epidermidis ATCC 12228, Enterococcus faecium ATCC 6057, E. faecalis ATCC 29212, Bacillus subtilis ATCC 6633; (2) Gram-negative bacteria from Enterobacteriales order: Klebsiella pneumoniae ATCC 13883, Escherichia coli ATCC 25922, Enterobacter cloacae DSM 6234, Proteus mirabilis ATCC 12453, Serratia marcescens ATCC 13880; (3) Gram-negative non-fermentative rods: Acinetobacter baumannii ATCC 19606, Pseudomonas aeruginosa ATCC 27853, Stenotrophomonas maltophilia ATCC 12714, S. maltophilia ATCC 13637, Burkholderia cepacia ATCC 25416, Bordetella bronchiseptica ATCC 4617; (4) yeasts: Candida albicans ATCC 90028, C. krusei ATCC 6258, C. parapsilosis ATCC 22019, C. tropicalis (Castellani) Berkhout ATCC 750, C. tropicalis IBA 171, C. guilliermondii IBA 155, and Saccharomyces cerevisiae ATCC 9763. Moreover, 5 clinical strains of methicillin-resistant S. aureus were also included: NMI 664 K, NMI 1576 K, NMI 1712 K, NMI 1991 K, and NMI 2541 K. All strains were stored at −80 °C. Prior to testing, each bacterial strain was subcultured twice on tryptic soy agar TSA (bioMerieux) medium and yeast strains on Sabouraud dextrose agar (bioMerieux) for 24–48 h at 30 °C to ensure viability. The antimicrobial activity was evaluated as previously described[26] by the disc-diffusion method and the MIC determination assays according to the EUCAST (ref. [71] and [72]) and CLSI (ref. [53] and [73]) recommendations. Assessment of bactericidal (MBC) and fungicidal (MFC) activities was performed according to the CLSI recommendations.[54,74] The following reference agents were used: fluconazole (in the case of fungi), linezolid (for Gram-positive bacteria), and nitrofurantoin (for Gram-negative rods). The new benzosiloxaboroles were dissolved in DMSO (Sigma).

[2] = tested on: E. faecium ATCC 6057; test: as above; assay type: cell-based; conditions: Enterococcus faecium, ATCC6057, E. faecium ATCC 6057; for MIC: read-out: MIC
Description: as §1

[3] = tested on: S. aureus ATCC 43300 MRSA; test: as above; assay type: cell-based; conditions: Staphylococcus aureus, S. aureus ATCC 43300 MRSA; for MBC: read-out: MBC (first MBC where Eagle effect); for MIC: read-out: MIC
Description: as §1

[4] = tested on: S. epidermidis ATCC 12228; test: as above; assay type: cell-based; conditions: Staphylococcus epidermidis, ATCC12228, S. epidermidis ATCC 12228; for MIC: read-out: MIC
Description: as §1

[5] = tested on: P. mirabilis ATCC 12453; test: Antibacterial activity: MIC/MBC, MIC with PAβN, disc-diffusion; assay type: cell-based, Proteus mirabilis; conditions: Proteus mirabilis, ATCC12453; P. mirabilis ATCC 12453; read-out: MIC
Description: as §1, with “The following reference agents were used: fluconazole (in the case of fungi), linezolid (for Gram-positive bacteria), and nitrofurantoin (for Gram-negative rods).” left out
(§2) Considering that the MDR efflux pumps often contribute to Gram-negative rod resistance, the MIC values of studied agents, with or without the pump inhibitor, PAβN (20 μg mL^−1) (Sigma), were determined.[75] The MIC was determined using Mueller–Hinton II broth medium (MHB) (Becton Dickinson) by the broth microdilution method, according to the CLSI guideliness.[53] To minimize the influence of PAβN on the destabilization of bacterial cell covers, the tests were conducted in the presence of 1 mM MgSO4 (Sigma).[76] At least a 4-fold reduction in the MIC value after the addition of PAβN was considered significant.[56,77]

[6] = tested on: E. cloacae DSM 6234; test: as above; assay type: cell-based, Enterobacter cloacae; conditions: E. cloacae DSM 6234; for MIC: Enterobacter cloacae, DSM6234, read-out: MIC
Description: as §1, with “The following reference agents were used: fluconazole (in the case of fungi), linezolid (for Gram-positive bacteria), and nitrofurantoin (for Gram-negative rods).” left out
as §2

[7] = tested on: S. marcescens ATCC 13880; test: as above; assay type: cell-based, Serratia marcescens; conditions: Serratia marcescens, ATCC13880; S. marcescens ATCC 13880; read-out: MIC
Description: as §1, with “The following reference agents were used: fluconazole (in the case of fungi), linezolid (for Gram-positive bacteria), and nitrofurantoin (for Gram-negative rods).” left out
as §2

[8] = tested on: P. aeruginosa ATCC 27853; test: as above; assay type: cell-based; conditions: Pseudomonas aeruginosa, ATCC27853; P. aeruginosa ATCC 27853; read-out: MIC
Description: as §1, with “The following reference agents were used: fluconazole (in the case of fungi), linezolid (for Gram-positive bacteria), and nitrofurantoin (for Gram-negative rods).” left out
as §2

[9] = tested on: C. albicans ATCC 90028; test: Antifungal activity: MIC/MFC, disc-diffusion; assay type: cell-based, Candida albicans; conditions: for diameter of inhibition zone: C. albicans ATCC 90028, (-) = zone not observed, paper discs 9 mm; for MIC: Candida albicans, ATCC90028, read-out: MIC
Description: as §1

[10] = tested on: C. krusei ATCC 6258; test: Antifungal activity: MIC/MFC, disc-diffusion; assay type: cell-based; conditions: for diameter of inhibition zone: C. krusei ATCC 6258, (-) = zone not observed, paper discs 9 mm; for MIC: Pichia kudriavzevii, ATCC6258, read-out: MIC
Description: as §1, with “The following reference agents were used: fluconazole (in the case of fungi), linezolid (for Gram-positive bacteria), and nitrofurantoin (for Gram-negative rods).” left out

Compound | MBC [1] [µg/mL] | MIC [1] [µg/mL] | MBC [2] [µg/mL] | MIC [2] [µg/mL] | MBC [3] [µg/mL] | MIC [3] [µg/mL] | MBC [4] [µg/mL] | MIC [4] [µg/mL] | MIC [5] [µg/mL] | MIC [6] [µg/mL] | MIC [7] [µg/mL] | MIC [8] [µg/mL] | diameter of inhibition zone [9] [mm] | MIC [9] [µg/mL] | diameter of inhibition zone [10] [mm] | MIC [10] [µg/mL] | -fold reduction of MIC in the presence of PAβN ([6]; PAβN 20 μg mL^−1, MHB + 1 mM MgSO4)
C[Si]1(C)OB(O)c2cc(F)c(S)c(F)c21 [Compound 1e, 5,7-Difluoro-6-mercapto-1,1-dimethylbenzo[c][1,2,5]oxasilaborol-3(1H)-ol] | 100 (≈ 406 µM) | 12.5 (≈ 50.8 µM) | 400 (≈ 1630 µM) | 12.5 (≈ 50.8 µM) | 25 (≈ 102 µM) | 12.5 (≈ 50.8 µM) | 50 (≈ 203 µM) | 1.56 (≈ 6.34 µM) | > 400 | > 400 | > 400 | > 400 | 15 | 100 (≈ 406 µM) | 13 | 400 (≈ 1630 µM) | 
C[Si]1(C)OB(O)c2ccc(S)c(F)c21 [Compound 2e, 7-Fluoro-6-mercapto-1,1-dimethylbenzo[c][1,2,5]oxasilaborol-3(1H)-ol] |  | 12.5 (≈ 54.8 µM) |  | 12.5 (≈ 54.8 µM) | 25 (≈ 110 µM) | 12.5 (≈ 54.8 µM) | 25 (≈ 110 µM) | 6.25 (≈ 27.4 µM) | > 100 | > 100 | > 100 | > 100 |  | > 100 |  | > 100 | 
CC(=O)CCSc1c(F)cc2c(c1F)[Si](C)(C)OB2O [Compound 3, 4-((5,7-Difluoro-3-hydroxy-1,1-dimethyl-1,3-dihydrobenzo[c][1,2,5]oxasilaborol-6-yl)thio)butan-2-one] | 200 (≈ 632 µM) | 25 (≈ 79.1 µM) | 200 (≈ 632 µM) | 12.5 (≈ 39.5 µM) | 200 (≈ 632 µM) | 50 (≈ 158 µM) | 200 (≈ 632 µM) | 25 (≈ 79.1 µM) | > 400 | > 400 | > 400 | > 400 |  | > 400 |  | 200 (≈ 632 µM) | 
COC(=O)CCSc1ccc2c(c1F)[Si](C)(C)OB2O [Compound 4, Methyl 3-((7-fluoro-3-hydroxy-1,1-dimethyl-1,3-dihydrobenzo[c][1,2,5]oxasilaborol-6-yl)thio)propanoate] |  | 200 (≈ 636 µM) |  | 100 (≈ 318 µM) |  | 12.5 (≈ 39.8 µM) |  | 25 (≈ 79.6 µM) | > 400 | > 400 | > 400 | > 400 | 12 | > 400 | 12 | 200 (≈ 636 µM) | 8 -fold
C[Si]1(C)OB(O)c2cc(F)c(SCCC(=O)ON3C(=O)CCC3=O)c(F)c21 [Compound 5, 2,5-Dioxopyrrolidin-1-yl 3-((5,7-difluoro-3-hydroxy-1,1-dimethyl-1,3-dihydrobenzo-[c][1,2,5]oxasilaborol-6-yl)thio)propanoate] |  | 400 (≈ 963 µM) |  | 400 (≈ 963 µM) |  | 400 (≈ 963 µM) |  | 400 (≈ 963 µM) | > 400 | > 400 | > 400 | > 400 |  | > 400 |  | > 400 | 
C[Si]1(C)OB(O)c2cc(F)c(SCCC#N)c(F)c21 [Compound 6, 3-((5,7-Difluoro-3-hydroxy-1,1-dimethyl-1,3-dihydrobenzo[c][1,2,5]oxasilaborol-6-yl)thio)propanenitrile] |  | 400 (≈ 1340 µM) |  | 400 (≈ 1340 µM) | > 400 | 12.5 (≈ 41.8 µM) |  | 50 (≈ 167 µM) | > 400 | > 400 | > 400 | > 400 |  | > 400 |  | > 400 | 
C[Si]1(C)OB(O)c2cc(F)c(SCCC(N)=O)c(F)c21 [Compound 7, 3-((5,7-Difluoro-3-hydroxy-1,1-dimethyl-1,3-dihydrobenzo[c][1,2,5]oxasilaborol-6-yl)thio)propanamide] |  | 400 (≈ 1260 µM) |  | 200 (≈ 631 µM) |  | 100 (≈ 315 µM) |  | 100 (≈ 315 µM) | > 400 | > 400 | > 400 | > 400 |  | > 400 |  | > 400 | 
C[Si]1(C)OB(O)c2cc(F)c(SCCC(=O)N3CCOCC3)c(F)c21 [Compound 8, 3-((5,7-Difluoro-3-hydroxy-1,1-dimethyl-1,3-dihydrobenzo[c][1,2,5]oxasilaborol-6-yl)thio)-1-morpholinopropan-1-one] |  | 400 (≈ 1030 µM) |  | 200 (≈ 516 µM) |  | 50 (≈ 129 µM) |  | 100 (≈ 258 µM) | > 400 | > 400 | > 400 | > 400 |  | > 400 |  | > 400 | 
C[Si]1(C)OB(O)c2cc(F)c(SCCC(=O)Nc3ncccn3)c(F)c21 [Compound 9, 3-((5,7-Difluoro-3-hydroxy-1,1-dimethyl-1,3-dihydrobenzo[c][1,2,5]oxasilaborol-6-yl)thio)-N-(pyrimidin-2-yl)propanamide] |  | 200 (≈ 506 µM) |  | 200 (≈ 506 µM) | 400 (≈ 1010 µM) | 50 (≈ 126 µM) | 400 (≈ 1010 µM) | 50 (≈ 126 µM) | > 400 | > 400 | > 400 | > 400 |  | > 400 |  | > 400 | 
C[Si]1(C)OB(O)c2cc(F)c(S(=O)(=O)N3CCOCC3)c(F)c21 [Compound 29, 5,7-Difluoro-1,1-dimethyl-6-(morpholinosulfonyl)benzo[c][1,2,5]oxasilaborol-3(1H)-ol] |  | > 400 |  | 400 (≈ 1100 µM) |  | 400 (≈ 1100 µM) |  | 400 (≈ 1100 µM) | > 400 | > 400 | > 400 | > 400 |  |  |  |  | 
